US20210330611A1, “THERAPY FOR NEUROLOGICAL DISEASES/DISORDERS” (priority 2020, published 2021)
Counter-ions that a name gives are not always drawn. Like-named read-outs stand apart in the source and are kept apart here.

Legend:
[1] = system: fibrin-induced microglia activation; assay: Image-based assay of fibrin-induced microglia activation (HTS and dose response); type: cell-based, rat; details: for inhibition at 10 µM: Rattus norvegicus, Microglia, read-out: Fibrin % inhibition
[2] = system: LPS-induced microglia activation; assay: Image-based assay of LPS-induced microglia activation (HTS and dose response); type: cell-based, rat; details: for inhibition at 10 µM: Rattus norvegicus, Microglia, read-out: LPS % inhibition
[3] = system: fibrin- and LPS-induced microglia activation; assay: cells; type: cell-based, rat; details: HTS of 1907 compounds, quadrant by fibrin and LPS inhibition
[4] = system: primary rat microglia; assay: Cell toxicity (dead cells, size <150 μm2) in LPS assay; details: primary microglia HTS, 10 μM, LPS assay, cell size <150 μm^2 as marker of toxicity
[5] = system: primary rat microglia; assay: Cell toxicity (dead cells, size <150 μm2) in coated fibrin (cFib) assay; details: primary microglia HTS, 10 μM, fibrin assay, cell size <150 μm^2 as marker of toxicity;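 further: share of dead cells sized under 150 µm2 at 10 µM in fibrin-stimulated microglia HTS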
[6] = primary microglia HTS, 10 μM, fibrin-stimulated, cell size >800 μm^2 as marker of activation
[7] = primary microglia HTS, 10 μM, LPS-stimulated, cell size >800 μm^2 as marker of activation

| Compound | inhibition at 10 µM [1, 6] [%] | inhibition at 10 µM [2, 7] [%] | Quadrant (FIG. 5b) [3] | LPS % cell toxicity [4] [%] | Fibrin % cell toxicity [5] [%] | Fibrin % inhibition [1, 6] [%] | LPS % inhibition [2, 7] [%] | inhibition at 10 µM [1] [%] | inhibition at 10 µM [2] [%] |
| --- | --- | --- | --- | --- | --- | --- | --- | --- | --- |
| CC(C)OC(=O)CCC/C=C\C[C@@H]1[C@@H](/C=C/[C@@H](O)COc2cccc(C(F)(F)F)c2)[C@H](O)C[C@@H]1O [Travoprost] | 4 | 15 | Q4 | 0 | 1 | – | – | – | – |
| CC(=O)OCC(COC(C)=O)OC(C)=O [Triacetin] | -32 | 15 | Q4 | 0 | 1 | – | – | – | – |
| NS(=O)(=O)c1cc2c(cc1Cl)NC(C(Cl)Cl)NS2(=O)=O (centres unmarked) [Trichlormethiazide] | 17 | 13 | Q4 | 0 | 1 | – | – | – | – |
| Oc1cc(Cl)ccc1Oc1ccc(Cl)cc1Cl [Triclosan] | -6 | 16 | Q4 | 1 | 1 | – | – | – | – |
| C[C@]12CC[C@H]3[C@@H](CC[C@@]45O[C@@H]4C(O)=C(C#N)C[C@]35C)[C@@H]1CC[C@@H]2O [Trilostane] | -24 | 11 | Q4 | 0 | 0 | – | – | – | – |
| COc1ccc(CN2CCNCC2)c(OC)c1OC [Trimetazidine] | -18 | 1 | Q4 | 0 | 1 | – | – | – | – |
| CN1C(=O)OC(C)(C)C1=O [Trimethadione] | -5 | 14 | Q4 | 0 | 1 | – | – | – | – |
| COc1cc(C(=O)NCc2ccc(OCCN(C)C)cc2)cc(OC)c1OC [Trimethobenzamide] | 16 | 17 | Q4 | 0 | 1 | – | – | – | – |
| COc1cc(C(=O)N2CCOCC2)cc(OC)c1OC [Trimetozine] | 2 | 12 | Q4 | 0 | 1 | – | – | – | – |
| Cc1cc2cc3c(C)cc(=O)oc3c(C)c2o1 [Trioxsalen] | -18 | 18 | Q4 | 0 | 1 | – | – | – | – |
| CN(C)CCN(Cc1ccccc1)c1ccccn1 [Tripelennamine] | 14 | 25 | Q4 | 0 | 1 | – | – | – | – |
| CC(C)C[C@H](NC(=O)[C@@H](Cc1c[nH]c2ccccc12)NC(=O)[C@H](Cc1ccc(O)cc1)NC(=O)[C@H](CO)NC(=O)[C@H](Cc1c[nH]c2ccccc12)NC(=O)[C@H](Cc1c[nH]cn1)NC(=O)[C@@H]1CCC(=O)N1)C(=O)N[C@@H](CCCNC(=N)N)C(=O)N1CCC[C@H]1C(=O)NCC(N)=O [Triptorelin] | – | – | Q4 | 0 | 1 | −15 | 4 | – | – |
| Cc1c(C)c2c(c(C)c1O)CCC(C)(COc1ccc(CC3SC(=O)NC3=O)cc1)O2 (centres unmarked) [Troglitazone] | -22 | 4 | Q4 | 0 | 1 | – | – | – | – |
| CN1[C@@H]2CC[C@H]1C[C@@H](OC(=O)c1c[nH]c3ccccc13)C2 [Tropisetron] | -28 | 14 | Q4 | 0 | 0 | – | – | – | – |
| O=C(O[C@H]1C[C@H]2CC[C@@H](C1)[N+]21CCCC1)C(O)(c1ccccc1)c1ccccc1 [Trospium Chloride] | -39 | 9 | Q4 | 1 | 0 | – | – | – | – |
| C[C@@H]1O[C@@H](OC[C@H]2O[C@@H](Oc3c(-c4ccc(OCCO)c(OCCO)c4)oc4cc(OCCO)cc(O)c4c3=O)[C@H](O)[C@@H](O)[C@@H]2O)[C@H](O)[C@H](O)[C@H]1O [Troxerutin] | -10 | 8 | Q4 | 0 | 0 | – | – | – | – |
| CCCCCC(C)N (centres unmarked) [Tuaminoheptane Sulfate] | -7 | 19 | Q4 | 0 | 1 | – | – | – | – |

| Compound | inhibition at 10 µM [1, 6] [%] | inhibition at 10 µM [2, 7] [%] | Quadrant (FIG. 5b) [3] | LPS % cell toxicity [4] [%] | Fibrin % cell toxicity [5] [%] | Fibrin % inhibition [1, 6] [%] | LPS % inhibition [2, 7] [%] | inhibition at 10 µM [1] [%] | inhibition at 10 µM [2] [%] |
| --- | --- | --- | --- | --- | --- | --- | --- | --- | --- |
| COc1cc2c3cc1Oc1cc(ccc1O)C[C@@H]1c4c(cc(OC)c(O)c4Oc4ccc(cc4)C[C@@H]3N(C)CC2)CC[N+]1(C)C [Tubocurarine] | -1 | 19 | Q4 | 0 | 0 | – | – | – | – |
| CC(C)(C)NCC(O)c1ccccc1Cl.Cl (centres unmarked) [Tulobuterol, Tulobuterol Hydrochloride] | – | – | Q4 | 0 | 0 | 21 | 36 | – | – |
| O=c1cc[nH]c(=O)[nH]1 [Uracil] | 3 | 11 | Q4 | 0 | 0 | – | – | – | – |
| COc1ccccc1N1CCN(CCCNc2cc(=O)n(C)c(=O)n2C)CC1 [Urapidil Hydrochloride] | -6 | 20 | Q4 | 0 | 1 | – | – | – | – |
| NC(N)=O [Urea] | – | – | Q4 | 0 | 1 | −14 | 20 | – | – |
| C[C@H](CCC(=O)O)[C@H]1CC[C@H]2[C@@H]3[C@@H](O)C[C@@H]4C[C@H](O)CC[C@]4(C)[C@H]3CC[C@]12C [Ursodeoxycholic Acid] | – | – | Q4 | 0 | 1 | −18 | 1 | – | – |
| C[C@H](CCC(=O)O)[C@H]1CC[C@H]2[C@@H]3[C@@H](O)C[C@@H]4C[C@H](O)CC[C@]4(C)[C@H]3CC[C@]12C [Ursodiol] | – | – | Q4 | 0 | 0 | −21 | 18 | – | – |
| CC(C)[C@H](N)C(=O)OCCOCn1cnc2c(=O)[nH]c(N)nc21 [Valaciclovir] | 12 | 15 | Q4 | 0 | 1 | – | – | – | – |
| Cc1onc(-c2ccccc2)c1-c1ccc(S(N)(=O)=O)cc1 [Valdecoxib] | -39 | -4 | Q4 | 0 | 1 | – | – | – | – |
| CC(C)[C@H](N)C(=O)OCC(CO)OCn1cnc2c(=O)nc(N)[nH]c21 (some centres unmarked) [Valganciclovir] | -12 | 14 | Q4 | 1 | 0 | – | – | – | – |
| CCCCC(=O)N(Cc1ccc(-c2ccccc2-c2nnn[nH]2)cc1)[C@H](C(=O)O)C(C)C [Valsartan] | – | – | Q4 | 0 | 0 | – | – | -17 | 12 |
| CC(=O)O[C@H]1C[C@@H]2CC[C@@H]3[C@H](CC[C@@]4(C)[C@H]3C[C@H]([N+]3(C)CCCCC3)[C@@H]4OC(C)=O)[C@@]2(C)C[C@@H]1N1CCCCC1 [Vecuronium Bromide] | – | – | Q4 | 0 | 1 | 7 | 23 | – | – |
| CC(=O)O[C@H]1C[C@@H]2CC[C@@H]3[C@H](CC[C@@]4(C)[C@H]3C[C@H]([N+]3(C)CCCCC3)[C@@H]4OC(C)=O)[C@@]2(C)C[C@@H]1N1CCCCC1 [Vecuronium] | – | – | Q4 | 1 | 1 | −24 | 0 | – | – |
| COc1ccc(C(CN(C)C)C2(O)CCCCC2)cc1 (centres unmarked) [Venlafaxine, Venlafaxine Hydrochloride] | – | – | Q4 | 0 | 1 | 3 | 20 | – | – |
| Nc1ncnc2c1ncn2[C@@H]1O[C@H](CO)[C@@H](O)[C@@H]1O [Vidarabine] | -3 | 14 | Q4 | 0 | 1 | – | – | – | – |
| N#Cc1ccc2[nH]cc(CCCCN3CCN(c4ccc5oc(C(N)=O)cc5c4)CC3)c2c1 [Vilazodone] | 1 | 27 | Q4 | 1 | 1 | – | – | – | – |
| CC[C@]12CCCN3CCc4c(n(c5ccccc45)[C@@](O)(C(=O)OC)C1)[C@@H]32 [Vincamine] | 1 | 20 | Q4 | 0 | 0 | – | – | – | – |
